# Data reported in patent publication US20250179061A1 (SIRONAX LTD., priority 2022, published 2025).
# System: HT-29 cells
# Experiment: HT-29 necroptosis cell viability assay (TNF-α/SMAC mimetic/zVAD-FMK, CellTiter-Glo)
# Assay type: cell-based
# Details: Homo sapiens, HT-29, HT-29 necroptosis cell viability assay; class symbols for IC50; read-out: Activity
# How it was run: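 Necroptosis was triggered by TNF-α (10 ng/ml), SMAC mimetic (6 μM) and zVAD-FMK (10 μM) in serum-free medium during 20 h compound exposure (10 concentrations, threefold steps) of HT-29 cells. IC50 from duplicate dose-responses uses CellTiter-Glo ATP luminescence as viability read-out.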
row,Compound,IC50 [nM]
1,"Cc1nc(C(F)(F)C(N)=O)sc1Oc1ccc(-n2ncn(Cc3c(F)cccc3F)c2=O)cc1F [Example 116, 2-(5-(4-(4-(2,6-difluorobenzyl)-5-oxo-4,5-dihydro-1H-1,2,4-triazol-1-yl)-2-fluorophenoxy)-4-methylthiazol-2-yl)-2,2-difluoroacetamide]",< 100
2,"CCOC(=O)C(=O)c1nc(C)c(Oc2ccc(-n3ncn(Cc4c(F)cccc4F)c3=O)cc2F)s1 [Example 117, ethyl 2-(5-(4-(4-(2,6-difluorobenzyl)-5-oxo-4,5-dihydro-1H-1,2,4-triazol-1-yl)-2-fluorophenoxy)-4-methylthiazol-2-yl)-2-oxoacetate]",100 to 1000
3,"CCOC(=O)C(F)(F)c1nc(C)c(Oc2ccc(-n3ncn(Cc4c(F)cccc4F)c3=O)cc2F)s1 [Example 118, ethyl 2-(5-(4-(4-(2,6-difluorobenzyl)-5-oxo-4,5-dihydro-1H-1,2,4-triazol-1-yl)-2-fluorophenoxy)-4-methylthiazol-2-yl)-2,2-difluoroacetate]",100 to 1000
4,"Cc1nc(C#N)c(Oc2ccc(-n3ncn(Cc4c(F)cccc4F)c3=O)cc2F)s1 [Example 120, 5-(4-(4-(2,6-difluorobenzyl)-5-oxo-4,5-dihydro-1H-1,2,4-triazol-1-yl)-2-fluorophenoxy)-2-methylthiazole-4-carbonitrile]",< 100
5,"Cn1cc(C#N)nc1Oc1ccc(-n2ncn(Cc3c(F)cccc3F)c2=O)cc1F [Example 121, 2-(4-(4-(2,6-difluorobenzyl)-5-oxo-4,5-dihydro-1H-1,2,4-triazol-1-yl)-2-fluorophenoxy)-1-methyl-1H-imidazole-4-carbonitrile]",100 to 1000
6,"Cc1nc(C#N)c(C)n1Cc1ccc(-n2ncn(Cc3c(F)cccc3F)c2=O)cc1F [Example 122, 1-(4-(4-(2,6-difluorobenzyl)-5-oxo-4,5-dihydro-1H-1,2,4-triazol-1-yl)-2-fluorobenzyl)-2,5-dimethyl-1H-imidazole-4-carbonitrile]",< 100
7,"Cc1nc(C)n(Cc2ccc(-n3ncn(Cc4c(F)cccc4F)c3=O)cc2F)c1C#N [Example 123, 1-(4-(4-(2,6-difluorobenzyl)-5-oxo-4,5-dihydro-1H-1,2,4-triazol-1-yl)-2-fluorobenzyl)-2,4-dimethyl-1H-imidazole-5-carbonitrile]",100 to 1000
8,"Cc1cc(C#N)c(C)n1Cc1ccc(-n2ncn(Cc3c(F)cccc3F)c2=O)cc1F [Example 124, 1-(4-(4-(2,6-difluorobenzyl)-5-oxo-4,5-dihydro-1H-1,2,4-triazol-1-yl)-2-fluorobenzyl)-2,5-dimethyl-1H-pyrrole-3-carbonitrile]",< 100
9,"Cc1nc(C#N)cn1Cc1ccc(-n2ncn(Cc3c(F)cccc3F)c2=O)cc1F [Example 125, 1-(4-(4-(2,6-difluorobenzyl)-5-oxo-4,5-dihydro-1H-1,2,4-triazol-1-yl)-2-fluorobenzyl)-2-methyl-1H-imidazole-4-carbonitrile]",< 100
10,"Cc1nc(C(C)(C)O)c(Oc2ccc(-n3ncn(Cc4c(F)cccc4F)c3=O)cc2F)s1 [Example 126, 4-(2,6-difluorobenzyl)-2-(3-fluoro-4-((4-(2-hydroxypropan-2-yl)-2-methylthiazol-5-yl)oxy)phenyl)-2,4-dihydro-3H-1,2,4-triazol-3-one]",100 to 1000
11,"COC(=O)c1nc(C)sc1Oc1ccc(-n2ncn(Cc3c(F)cccc3F)c2=O)cc1F [Example 127, methyl 5-(4-(4-(2,6-difluorobenzyl)-5-oxo-4,5-dihydro-1H-1,2,4-triazol-1-yl)-2-fluorophenoxy)-2-methylthiazole-4-carboxylate]",< 100
12,"COC(=O)c1ncsc1Oc1ccc(-n2ncn(Cc3c(F)cccc3F)c2=O)cc1F [Example 128, methyl 5-(4-(4-(2,6-difluorobenzyl)-5-oxo-4,5-dihydro-1H-1,2,4-triazol-1-yl)-2-fluorophenoxy)thiazole-4-carboxylate]",100 to 1000
13,"Cc1nc(C(C)(C)O)sc1Oc1ccc(-n2ncn(Cc3ncccc3C#N)c2=O)cc1F [Example 129, 2-((1-(3-fluoro-4-((2-(2-hydroxypropan-2-yl)-4-methylthiazol-5-yl)oxy)phenyl)-5-oxo-1,5-dihydro-4H-1,2,4-triazol-4-yl)methyl)nicotinonitrile]",100 to 1000
14,"Cn1nc(C(C)(C)O)cc1Oc1ccc(-n2nc3n(c2=O)C(c2ccccc2)CC3)cc1F (stereo not drawn) [Example 130, 2-(3-fluoro-4-((3-(2-hydroxypropan-2-yl)-1-methyl-1H-pyrazol-5-yl)oxy)phenyl)-5-phenyl-2,5,6,7-tetrahydro-3H-pyrrolo[2,1-c][1,2,4]triazol-3-one]",< 100
15,"Cn1cc(C(C)(C)O)nc1Oc1ccc(-n2ncn(Cc3c(F)cccc3F)c2=O)cc1F [Example 131, 4-(2,6-difluorobenzyl)-2-(3-fluoro-4-((4-(2-hydroxypropan-2-yl)-1-methyl-1H-imidazol-2-yl)oxy)phenyl)-2,4-dihydro-3H-1,2,4-triazol-3-one]",> 10000
16,"Cn1c(C(C)(C)O)cnc1Oc1ccc(-n2ncn(Cc3c(F)cccc3F)c2=O)cc1F [Example 132, 4-(2,6-difluorobenzyl)-2-(3-fluoro-4-((5-(2-hydroxypropan-2-yl)-1-methyl-1H-imidazol-2-yl)oxy)phenyl)-2,4-dihydro-3H-1,2,4-triazol-3-one]",1000 to 10000
17,"Cc1nc(C(C)(C)O)n(C)c1Oc1ccc(-n2ncn(Cc3c(F)cccc3F)c2=O)cc1F [Example 133, 4-(2,6-difluorobenzyl)-2-(3-fluoro-4-((2-(2-hydroxypropan-2-yl)-1,4-dimethyl-1H-imidazol-5-yl)oxy)phenyl)-2,4-dihydro-3H-1,2,4-triazol-3-one]",100 to 1000
18,"Cn1nc(C(C)(C)O)cc1Oc1ccc(-n2ncn(Cc3c(F)cccc3F)c2=O)cc1F [Example 134, 4-(2,6-difluorobenzyl)-2-(3-fluoro-4-((3-(2-hydroxypropan-2-yl)-1-methyl-1H-pyrazol-5-yl)oxy)phenyl)-2,4-dihydro-3H-1,2,4-triazol-3-one]",< 100
19,"Cc1nc(C(C)(C)O)c(C)n1Cc1ccc(-n2ncn(Cc3c(F)cccc3F)c2=O)cc1F [Example 135, 4-(2,6-difluorobenzyl)-2-(3-fluoro-4-((4-(2-hydroxypropan-2-yl)-2,5-dimethyl-1H-imidazol-1-yl)methyl)phenyl)-2,4-dihydro-3H-1,2,4-triazol-3-one]",1000 to 10000
20,"Cc1nc(C(C)(C)O)cn1Cc1ccc(-n2nc3n(c2=O)C(c2ccccc2)CC3)cc1F (stereo not drawn) [Example 136, 2-(3-fluoro-4-((4-(2-hydroxypropan-2-yl)-2-methyl-1H-imidazol-1-yl)methyl)phenyl)-5-phenyl-2,5,6,7-tetrahydro-3H-pyrrolo[2,1-c][1,2,4]triazol-3-one]",1000 to 10000
21,"Cc1nc(C(C)(C)O)cn1Cc1ccc(-n2ncn(Cc3c(F)cccc3F)c2=O)cc1F [Example 137, 4-(2,6-difluorobenzyl)-2-(3-fluoro-4-((4-(2-hydroxypropan-2-yl)-2-methyl-1H-imidazol-1-yl)methyl)phenyl)-2,4-dihydro-3H-1,2,4-triazol-3-one]",1000 to 10000
22,"Cc1nc(CC(N)=O)c(Oc2ccc(-n3ncn(Cc4c(F)cccc4F)c3=O)cc2F)s1 [Example 138, 2-(5-(4-(4-(2,6-difluorobenzyl)-5-oxo-4,5-dihydro-1H-1,2,4-triazol-1-yl)-2-fluorophenoxy)-2-methylthiazol-4-yl)acetamide]",< 100
23,"Cc1nc(CC#N)sc1Oc1ccc(-n2ncn(Cc3c(F)cccc3F)c2=O)cc1Cl [Example 139, 2-(5-(2-chloro-4-(4-(2,6-difluorobenzyl)-5-oxo-4,5-dihydro-1H-1,2,4-triazol-1-yl)phenoxy)-4-methylthiazol-2-yl)acetonitrile]",< 100
24,"Cn1nc(CC#N)cc1Oc1ccc(-n2ncn(Cc3c(F)cccc3F)c2=O)cc1F [Example 140, 2-(5-(4-(4-(2,6-difluorobenzyl)-5-oxo-4,5-dihydro-1H-1,2,4-triazol-1-yl)-2-fluorophenoxy)-1-methyl-1H-pyrazol-3-yl)acetonitrile]",< 100
25,"Cc1nc(CC#N)cn1Cc1ccc(-n2ncn(Cc3c(F)cccc3F)c2=O)cc1F [Example 141, 2-(1-(4-(4-(2,6-difluorobenzyl)-5-oxo-4,5-dihydro-1H-1,2,4-triazol-1-yl)-2-fluorobenzyl)-2-methyl-1H-imidazol-4-yl)acetonitrile]",100 to 1000
26,"Cc1nc(CC#N)c(C)n1Cc1ccc(-n2ncn(Cc3c(F)cccc3F)c2=O)cc1F [Example 142, 2-(1-(4-(4-(2,6-difluorobenzyl)-5-oxo-4,5-dihydro-1H-1,2,4-triazol-1-yl)-2-fluorobenzyl)-2,5-dimethyl-1H-imidazol-4-yl)acetonitrile]",1000 to 10000
27,"Cc1c(CC(N)=O)nn(C)c1Oc1ccc(-n2ncn(Cc3c(F)cccc3F)c2=O)cc1F [Example 143, 2-(5-(4-(4-(2,6-difluorobenzyl)-5-oxo-4,5-dihydro-1H-1,2,4-triazol-1-yl)-2-fluorophenoxy)-1,4-dimethyl-1H-pyrazol-3-yl)acetamide]",< 100
28,"CC1(O)CN(c2nc(C(F)F)c(Oc3ccc(-n4ncn(Cc5c(F)cccc5F)c4=O)cc3F)s2)C1 [Example 144, 4-(2,6-difluorobenzyl)-2-(4-((4-(difluoromethyl)-2-(3-hydroxy-3-methylazetidin-1-yl)thiazol-5-yl)oxy)-3-fluorophenyl)-2,4-dihydro-3H-1,2,4-triazol-3-one]",< 100
29,"O=c1n(Cc2c(F)cccc2F)cnn1-c1ccc(Oc2scnc2CO)c(F)c1 [Example 145, 4-(2,6-difluorobenzyl)-2-(3-fluoro-4-((4-(hydroxymethyl)thiazol-5-yl)oxy)phenyl)-2,4-dihydro-3H-1,2,4-triazol-3-one]",< 100

# Same assay, conditions: Homo sapiens; HT-29 cells stimulated with TNF-α (10 ng/ml), SMAC mimetic (6 μM) and zVAD-FMK (10 μM); 20 hours; CellTiter-Glo ATP luminescence; geometric mean IC50 from 10 points; read-out: Activity
row,Compound,IC50 [nM]
1,"Cc1nc(C2CC(C)(O)C2)sc1Oc1ccc(-n2ncn(Cc3c(F)cccc3F)c2=O)cc1F (stereo not drawn) [Example 119, 4-(2,6-difluorobenzyl)-2-(3-fluoro-4-((2-(3-hydroxy-3-methylcyclobutyl)-4-methylthiazol-5-yl)oxy)phenyl)-2,4-dihydro-3H-1,2,4-triazol-3-one]",< 100
